Blank lines part the entries; values can stand above or below the molecule they belong to.
What was measured:
[1] = human annexin V; read-out: affinity (kd) for phosphatidylserine (PS); cited from earlier work
[2] = cited from earlier work
[3] = In vivo early half-life of dye
vasculature of the heart = assay: Near-infrared fluorescence imaging of heart vasculature with vascular contrast agent after LAD artery ischemia; format: in vivo; details: rat, 12.5 nmol injected, 24 hours after LAD artery ischemia; compared with 2,3,5-triphenyltetrazolium chloride staining
Excerpt: The otherwise invisible near-infrared fluorescence from indocyanine green has been pseudo-colored white prior to superimposition on the color video (anatomic) image. […] In pseudo-colored magenta are the red fluorescent microbeads injected during initial ischemia. […] The area of the heart internal to this “ring” of perfusion is termed the “area at risk”, i.e., the area of myocardium that had no blood flow during LAD ligation. […] Finally, the near-infrared fluorescence signal from injection of 25 μg of human annexin V covalently conjugated with IRDye78 (a near-infrared fluorophore) is shown pseudo-colored in green.

[4] = Solubility of dye in blood; details: small molecule form
[5] = tested on: mitochondria and/or endoplasmic reticulum; assay: Subcellular partitioning of dye; format: cell-based; details: concentration-dependent
[6] = tested on: apoptotic and/or necrotic cells; assay: Near-infrared fluorescence imaging of labeled annexin V in rat heart after LAD artery ischemia/reperfusion; format: in vivo; details: 25 μg injected, imaged 24 hours after 20 minutes LAD ligation and reperfusion
Method: A branch of the left anterior descending (LAD) artery of the rat heart was ligated with a silk suture. During ligation, the aorta was cross-clamped and 10 μm red fluorescent microbeads were injected into the ventricle. […] After 20 minutes of ligation, the suture was removed, and the heart was permitted to re-perfuse.
The otherwise invisible near-infrared fluorescence from indocyanine green has been pseudo-colored white prior to superimposition on the color video (anatomic) image. […] In pseudo-colored magenta are the red fluorescent microbeads injected during initial ischemia. This area was well perfused during ischemia. The area of the heart internal to this “ring” of perfusion is termed the “area at risk”, i.e., the area of myocardium that had no blood flow during LAD ligation. The area of avascularity/infarct identified with indocyanine green is contained within the area at risk. Finally, the near-infrared fluorescence signal from injection of 25 μg of human annexin V covalently conjugated with IRDye78 (a near-infrared fluorophore) is shown pseudo-colored in green. The green areas, thus, represent apoptotic and/or necrotic cells, i.e., those areas within the area at risk that have actually succumbed to the ischemia. […] Presumably, this area was supplied by either diffusion or smaller collateral vessels fed by the well-perfused area.

Molecule: Human annexin V: human annexin V, molecular weight 36 kd, binds phosphatidylserine; targeting moiety
Kd [1]: 7 nM | dose at which pharmacological effects (anti-coagulant effects) begin ([2]; in vivo): greater than 300 μg protein/kg | pharmacologic or toxic side effects at tracer doses ([2]; tracer doses, e.g. 10 μg protein/kg to 50 μg protein/kg, animal or human subjects): no reported pharmacologic or toxic side effects

in vivo early half-life [3]: shorter half-life | solubility in blood [4]: somewhat less soluble in blood
Molecule: CC1(C)C(/C=C/C=C/C=C/C=C2\N(CCCCS(=O)(=O)O)c3ccc4ccccc4c3C2(C)C)=[N+](CCCCS(=O)(=O)[O-])c2ccc3ccccc3c21 [Indocyanine green, indocyanine green]
vascular staining of ischemic heart (vasculature of the heart): reveals an area of avascularity that corresponds to infarcted tissue

Molecule: CN1C(=CC=C2CCCC(C=CC3=[N+](C)c4ccccc4C3(C)C)=C2Cl)C(C)(C)c2ccccc21.[O-][Cl+3]([O-])([O-])[O-] [IR-786]
partitioning into organelles [5]: partitions efficiently into mitochondria and/or endoplasmic reticulum

Molecule: human annexin V covalently conjugated with IRDye78: annexin V reacted under aqueous conditions with the N-hydroxysuccinimide ester of IRDye78, a near-infrared fluorophore
near-infrared fluorescence signal localisation in ischemic heart [6]: several areas of infarcted myocardium within the area at risk

Reference: patent publication US20060134001A1, “Conjugated infrared fluorescent substances for detection of cell death” (priority 2002, published 2006)
